Laboratory results from patent US6818407B2, “Anti-endotoxic antimicrobial cationic peptides and methods of use therfor” (priority 1998, dated 2004).
Ends that are not written are not given here.

Key:
[1] = test system: Aeromonas salmonicida (As); format: cell-based; settings: Mueller Hinton Broth
Description: (§1) The biological activity of the peptides can be determined by standard methods known to those of skill in the art, such as Aminimal inhibitory concentration (MIC)≅ assay described in the present examples, whereby the lowest concentration at which no change in OD is observed for a given period of time is recorded as MIC. Alternatively, Afractional inhibitory concentration (FIC)≅ is also useful for determination of synergy between the peptides of the invention, or the peptides in combination with known antibiotics. FICs are performed by checkerboard titrations of peptides in one dimension of a microtiter plate, and of antibiotics in the other dimension, for example. The FIC is calculated by looking at the impact of one antibiotic on the MIC of the other and vice versa. […] Preferably, an FIC of less than 0.5 is obtained for synergism. As used herein, FIC can be determined as follows: [formula]
(§2) These peptides varied in activity (Table 11), however, the C-terminally capped pleurocidin especially and its N-terminally capped lysine derivative had much better activities against a variety of bacteria including Vibrio anguillarum (Va), Aeromonas salmonicida (As), Staphylococcus epidermidis (C621), Salmonella typhimurium wild type (C587) and phoP phoQ mutant (C610), and Pseudomonas aeruginosa wild type (K799) and outer membrane barrier altered (Z61). The antimicrobial peptide CEME, a fusion peptide made from portions of an insect defensin ceropin A and the bee venom peptide melittin (Piers and Hancock, Mol. Microbiol., 12:951-8, 1994), as well as the known antibiotics polymyxin B and gentamicin were used as controls. Replacing the pleurocidin N-terminus with the dermaseptin N-terminus had no effect. Replacing pleurocidin N-terminus with the ceratoxin N-terminus reduced activity. […] Amidating the C-terminus improved antimicrobial activity. Replacing the pleurocidin C-terminus with the misgurin C-terminus had no effect.
(§3) Bacteria included Vibrio anguillarum (Va), Aeromonas salmonicida (As), Staphylococcus epidermidis (C621), Salmonella typhimurium wild type (C587) and phoP phoQ mutant (C6 10), and Pseudomonas aeruginosa wild type (K799) and outer membrane barrier altered (Z61).

[2] = test system: Pseudomonas aeruginosa outer membrane barrier altered (Z61); format: cell-based; settings: Mueller Hinton Broth
Description: as §1, §2, §3

[3] = test system: Pseudomonas aeruginosa wild type (K799); format: cell-based; settings: Mueller Hinton Broth
Description: as §1, §2, §3

[4] = test system: Salmonella typhimurium phoP phoQ mutant (C610); format: cell-based; settings: Mueller Hinton Broth
Description: as §1, §2, §3

[5] = test system: Salmonella typhimurium wild type (C587); format: cell-based; settings: Mueller Hinton Broth
Description: as §1, §2, §3

[6] = test system: Staphylococcus epidermidis (C621); format: cell-based; settings: Mueller Hinton Broth
Description: as §1, §2, §3

Vibrio anguillarum (Va) = format: cell-based; settings: Mueller Hinton Broth
Description: as §1, §2, §3

V. anguillarum = experiment: Protection of coho salmon, peptide delivered constantly by intraperitoneal mini-osmotic pump; format: in vivo, juvenile coho salmon; settings: P-CN osmotic pump, 19 fish; for Accumulated Mortalities: 30 days, saline pump control 75%, bacteria alone 67%
Description: Constant delivery of peptide P-CN using intraperitoneal mini-osmotic pumps was carried out. Briefly, juvenile coho salmon were divided into three treatment groups: A. Bacterial injection alone (12 fish). B. Fish saline osmotic pump and bacterial injection (12 fish). C. A combination of P-CN osmotic pump and bacterial injection (19 fish). The fish were anaesthetized and implanted (peritoneal cavity) with mini-osmotic pumps having a pumping rate of 0.13 µl/hour. Heaters were placed in the tanks to keep the water temperature between 12 and 13° C. Pumps were filled with concentrated P-CN to deliver approximately […] peptide to fish over a 30-day period. Twelve days after pump implantation, the fish received intraperitoneal injections of V. anguillarum ([…]). Mortalities were first noticed on day 3 for the group injected with bacteria alone and on day 5 for the group which received saline osmotic pumps as well as bacterial injections. However, there was no significant difference in mortality between the bacterial injection alone group and the saline osmotic pump group (67% vs. 75%). Mortalities were delayed for the P-CN osmotic pump group. The P-CN osmotic pump group had only one fish die on day 6 over the 30 days experiments with an accumulated mortality of 5%. […] Furthermore, since cationic peptides are not effective in a single treatment and constant administration is necessary, this argues for the potential success of transgenic fish expressing peptide P-CN.
Fish loss from disease is a significant problem in aquaculture worldwide. However, expression of natural cationic peptide genes in fish could increase disease resistance because of continual cellular production of the antimicrobial peptides. In order to choose optimal peptides for transgenic fish, the antimicrobial activities of some cationic peptides were determined by testing minimum inhibitory concentrations (MICs) in vitro. […] The in vivo effect of CEME was examined by intraperitoneal injection of the peptide along with V. anguillarum into juvenile coho salmon. Fish in the bacteria alone control group had 60% mortality, while fish receiving peptide and bacteria injections had 82% mortality. […] Therefore, constant delivery of CEME and Pleurocidin-CN using intraperitoneal mini-osmotic pumps were carried out. Twelve days after pump implantation, the fish received intraperitoneal injections of V. anguillarum. The CEME and pleurocidin-CN pump group had longer survival time and lower mortalities than the control groups (50% Vs. 13%, and 75% Vs. 5%, respectively). Indolicidin transgenic cutthroat trout were made using a construct including an MT promoter, growth hormone signal, pre-region, indolicidin, and terminator. […]

E. coli [7] = experiment: MIC, broth microdilution assay in polypropylene microtiter trays; format: cell-based; settings: average of three separate experiments
Procedure, shortened: (§4)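 MIC values record the lowest peptide concentration at which turbidity (OD) remained unchanged throughout the assigned period.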

P. aeruginosa = experiment: as above; format: cell-based; settings: average of three separate experiments
Procedure, shortened: as §4

S. aureus K147 = experiment: as above; format: cell-based; settings: average of three separate experiments
Procedure, shortened: as §4

S. aureus = experiment: as above; format: cell-based; settings: average of three separate experiments
Procedure, shortened: as §4

S. epidermis = experiment: as above; format: cell-based; settings: average of three separate experiments
Procedure, shortened: as §4

[8] = test system: mutant (Nal B, H744) of P. aeruginosa; experiment: microbe, parasite or virus in culture; format: cell-based
Description: as §1
(§5) To test whether the peptides of the invention synergize with various antibiotics, the following method was employed. Fractional Inhibitory Concentration (FIC) was used to determine synergy of peptides combined with antibiotics (e.g., carbenicillin/ciprofloxacin) against Pseudomonas aeruginosa. The following methodology was followed:
(§6) (1) Determination of MIC of cationic peptides (MIC A):
(§7) 100 μl Mueller Hinton broth (MHB) was added per well
(§8) 12.5 μl of 10× test concentration peptide was added per well to get final peptide concentration of e.g., 128, 64, 32, . . . 0.025 μg/ml from row 1 to 11;
(§9) 10 μl of 10^−4 dilution of overnight bacterial culture was added per well.
(§10) (2) Determination of MIC of Carbenicillin/Ciprofloxacin (MIC B):
(§11) 100 μl MHB was added per well;
(§12) 100 μl of 2× test concentration of antibiotic was added in the first well of the row, and doubling dilutions performed across the plate from column 1 to 11;
(§13) (3) Determination of MIC of antibiotics (B) when combined with peptides at concentration A:
(§14) 100 μl Carbenicillin (512 μg/ml) or Ciprofloxacin (8 μg/ml) was added in each well of column 1; doubling dilutions were performed across the plate;
(§15) 100 μl of the peptide was added in all wells of row 1, mixed, and 100 μl withdrawn and added to row 2, etc., creating a checkerboard titration.
(§16) 10 μl of 10^−4 dilution of overnight culture was added per well;
(§17) plates were incubated at 37EC for 18-24 hours. Combination MIC values A and B were taken as the lowest concentration of drug that reduced bacterial growth by more than 50% in any given column.
(§18) (4) FIC index=FICA+FICB=(A)/MIC A+(B)/MIC B. An FIC index of approximately 0.5 or less indicates synergy; 1.0 reflects additivity; and >1.0 indicates antagonism.

[9] = test system: β-lactamase derepressed mutant (H547) of P. aeruginosa; experiment: microbe, parasite or virus in culture; format: cell-based; settings: P. aeruginosa H547
Description: as §1, §5, §6, §7, §8, §9, §10, §11, §12, §13, §14, §15, §16, §17, §18

E. coli [10] = experiment: Synergy study (checkerboard titration) with hen white lysozyme; format: cell-based
Description: as §1

P. aeruginosa (H103) = experiment: as above; format: cell-based
Description: as §1

Salmonella typhi = experiment: as above; format: cell-based
Description: as §1

[11] = Lethal endotoxemia in galactosamine-sensitized mice; format: in vivo, CD-1 mice; settings: peptide 200 μg intraperitoneal within 10 min of 10 μg LPS; 24 hours post injection; 5 mice per group; no peptide 100
Description: To confirm this in vivo, endotoxic shock was induced by intraperitoneal injection of 10 μg of E.coli 0111:B4 LPS in phosphate-buffered saline (PBS; pH 7.2) into galactosamine-sensitized 8- to 10- week old female CD-1 mice (5 per group). In experiments involving peptides, 200 μg in 100 μl of sterile water was injected at separate intraperitoneal sites within 10 min of LPS injection. Survival was monitored at 24 hours post injection.

[12] = test system: Pseudomonas aeruginosa strain M2; experiment: Protection of neutropenic CD-1 mice challenged with Pseudomonas aeruginosa; format: in vivo; parameters: Survival post bacterial challenge, surviving mice: reference not given here; settings: for Survival (%) post bacterial challenge: PBS 8
Procedure, shortened: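 Neutropenia induced by three i.p. cyclophosphamide doses ([…], alternate days); mice then infected i.p. with 200-300 organisms/mouse. Peptides (200 µg/mouse = 8 mg/kg) in buffered citrate given i.p. at 30 min (single) or 30 min and 16 hrs (double) post-challenge; PBS control; mean of 2 experiments.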

[13] = cationic peptide concentration, combined with lysozyme
[14] = lysozyme concentration, combined with the peptide

Substance: GWGSFFKKAAHVGKHVGKAALTHYL-NH2 [P-CN]
- MIC As [1]: 1 µg/mL
- MIC Z61 [2]: 4 µg/mL
- MIC K799 [3]: 8 µg/mL
- MIC C610 [4]: <0.5 µg/mL
- MIC C587 [5]: 4 µg/mL
- MIC C621 [6]: 4 µg/mL
- MIC Va (Vibrio anguillarum (Va)): 2 µg/mL
- Accumulated Mortalities (V. anguillarum): 5%
- Accumulated Mortalities (V. anguillarum; listed as pleurocidin-CN): 5%
- Mortalities (fish died on the day) (V. anguillarum; day 6 after V. anguillarum challenge): 1

Substance: KWKSFIKKLTKAAKKVVTTAKKPLIV [CM2]
- MIC E. coli (E. coli [7]): 1 µg/mL
- MIC P. aeruginosa (P. aeruginosa): 3 µg/mL
- MIC S. aureus K147 (S. aureus K147): >64 µg/mL
- MIC S. aureus (S. aureus): >64 µg/mL
- MIC S. epidermis (S. epidermis): 5 µg/mL
- (B) MIC of Cipro when combined with peptide ([8]; ciprofloxacin with peptide at concentration (A), Nal B, H744): .25 µg/mL
- MIC A MIC of Peptides ([8]; peptide alone, P. aeruginosa mutant Nal B, H744 (Table 5)): 1 µg/mL
- (A) Peptide doses together with Cipro ([8]; peptide concentration in combination with ciprofloxacin, Nal B, H744): .5 µg/mL
- (B) MIC of Carb when combined with peptide ([9]; Carbenicillin with peptide at concentration (A)): 64 µg/mL
- MIC A MIC of Peptides ([9]; peptide alone): 4 µg/mL
- (A) Peptide doses together with Carb ([9]; peptide concentration in combination with Carbenicillin): .5 µg/mL
- FIC for combination of cationic peptide and lysozyme (E. coli [10]): 0.25
- Lowest [CP] showing synergy (E. coli [10]; [13]): 0.081 µg/mL
- Lowest [Lyso] showing synergy (E. coli [10]; [14]): 7.8 µg/mL
- FIC for combination of cationic peptide and lysozyme (P. aeruginosa (H103)): 0.37
- Lowest [CP] showing synergy (P. aeruginosa (H103); [13]): 1.3 µg/mL
- Lowest [Lyso] showing synergy (P. aeruginosa (H103); [14]): 7.8 µg/mL
- FIC for combination of cationic peptide and lysozyme (Salmonella typhi): 0.53
- Lowest [CP] showing synergy (Salmonella typhi; [13]): 2.61 µg/mL
- Lowest [Lyso] showing synergy (Salmonella typhi; [14]): 31.3 µg/mL
- Mortality (%) [11]: 80%
- Survival post bacterial challenge, surviving mice ([12]; double dose (200 μg per mouse i.p. at 30 min and 16 hrs), 16 hr): 14
- Survival post bacterial challenge, surviving mice ([12]; double dose, 24 hr): 14
- Survival post bacterial challenge, surviving mice ([12]; double dose, 41 hr): 10
- Survival post bacterial challenge, surviving mice ([12]; double dose, 48 hr): 7
- Survival post bacterial challenge, surviving mice ([12]; double dose, 64 hr): 7
- Survival (%) post bacterial challenge ([12]; double dose, 64 hr): 50%
- Survival post bacterial challenge, surviving mice ([12]; double dose, 72 hr): 7
- Survival (%) post bacterial challenge ([12]; double dose, 72 hr): 50%
- Survival post bacterial challenge, surviving mice ([12]; double dose, 96 hr): 6
- Survival (%) post bacterial challenge ([12]; double dose, 96 hr): 42%
- Survival post bacterial challenge, surviving mice ([12]; single dose (200 μg per mouse i.p. at 30 min), 16 hr): 15
- Survival post bacterial challenge, surviving mice ([12]; single dose, 24 hr): 15
- Survival post bacterial challenge, surviving mice ([12]; single dose, 41 hr): 13
- Survival post bacterial challenge, surviving mice ([12]; single dose, 48 hr): 12
- Survival post bacterial challenge, surviving mice ([12]; single dose, 64 hr): 11
- Survival (%) post bacterial challenge ([12]; single dose, 64 hr): 73%
- Survival post bacterial challenge, surviving mice ([12]; single dose, 72 hr): 11
- Survival (%) post bacterial challenge ([12]; single dose, 72 hr): 73%
- Survival post bacterial challenge, surviving mice ([12]; single dose, 96 hr): 10
- Survival (%) post bacterial challenge ([12]; single dose, 96 hr): 66%
